Source: patent US9969732B2, “Tetrahydroisoquinoline estrogen receptor modulators and uses thereof” (Genentech, Inc., priority 2016, dated 2018)

Molecular target: T1, ER-alpha (WT) (Homo sapiens, UniProt P03372)
T1 construct: endogenous in cells; host or cells: MCF7 breast cancer cells
T1 sequence (P03372 1-595): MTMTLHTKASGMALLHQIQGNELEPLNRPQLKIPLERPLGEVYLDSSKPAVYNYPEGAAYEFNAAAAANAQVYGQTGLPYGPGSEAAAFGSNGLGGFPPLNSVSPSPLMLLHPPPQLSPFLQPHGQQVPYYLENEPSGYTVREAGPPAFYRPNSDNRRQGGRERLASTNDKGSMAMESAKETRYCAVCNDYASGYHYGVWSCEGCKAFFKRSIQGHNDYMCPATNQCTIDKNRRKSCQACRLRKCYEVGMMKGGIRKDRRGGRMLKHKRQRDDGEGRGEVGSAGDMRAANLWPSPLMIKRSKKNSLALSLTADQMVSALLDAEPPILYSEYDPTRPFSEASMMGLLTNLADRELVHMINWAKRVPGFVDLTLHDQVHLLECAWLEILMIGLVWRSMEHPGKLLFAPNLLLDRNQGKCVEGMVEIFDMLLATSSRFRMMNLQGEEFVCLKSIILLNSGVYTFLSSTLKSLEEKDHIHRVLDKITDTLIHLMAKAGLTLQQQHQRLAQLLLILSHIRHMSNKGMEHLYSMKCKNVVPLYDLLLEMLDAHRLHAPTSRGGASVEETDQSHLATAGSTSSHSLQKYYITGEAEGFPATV
Assay: Breast Cancer Cell ERa High Content Fluorescence Imaging Degradation Assay (MCF7 HCS)
Type: cell-based
Settings: MCF7 breast cancer cells, 4 hours incubation; for EC50: inflexion point of curve; for ERalpha (WT) MCF7 HCS (S inf): plateau of the maximal effect, DMSO and Fulvestrant define 0% and 100% changes in ESR1
Protocol: MCF7 breast cancer cells were seeded on day 1 at a density of 10,000 cells per well in 384 well poly-lysine coated tissue culture plate (Greiner #T-3101-4), in 50 μL/well RPMI (phenol red free), 10% FBS (Charcoal stripped), containing L-glutamine. […] Compounds and controls were dispensed using a Labcyte Echo acoustic dispenser to dispense compounds with a predefined serial dilution (1.8×, 10 point, in duplicate) and appropriate backfill and control compounds (final total volume transferred was 417.5 nL and compound dispense volume ranges from 2.5 nL to 417.5 nL; 0.84% DMSO (v/v) final), ultimately producing a concentration range from 0.05 nM to 835 nM. Cell plates were incubated at 37° C., for 4 hours. Fixation and permeabilization were carried out using a Biotek EL406 plate washer and dispenser as follows. Cells were fixed by addition of 15 μL of 16% paraformaldehyde (Electron Microscopy Sciences #15710-S) directly to the 50 μL cell culture medium in each well using the peristaltic pump 5 μL cassette on a Biotek EL406 (final concentration of formaldehyde was 3.7% w/v). Samples were incubated 30 minutes. Well contents was aspirated and 50 μL/well of Phosphate Buffered Saline (PBS) containing 0.5% w/v bovine serum albumen, 0.5% v/v Triton X-100 (Antibody Dilution Buffer) was added to each well. Samples were incubated for 30 minutes. Well contents were aspirated and washed 3 times with 100 μL/well of PBS. Immunofluorescence staining of estrogen receptor alpha (ESR1) was carried out using a Biotek EL406 plate washer and dispenser as follows. The well supernatant was aspirated from the wells and 25 μL/well of anti-ESR1 mAb (F10) (Santa Cruz sc-8002) diluted 1:1000 in Antibody Dilution Buffer was dispensed. Samples were incubated for 2 hours at room temperature. Samples were washed 4 times with 100 μL/well of PBS. 25 μL (microliters)/well of secondary antibody solution (Alexafluor® 488 conjugate anti-mouse IgG (LifeTechnologies #A21202) diluted 1:1000 and Hoechst 33342 1 μg/mL diluted in Antibody Dilution Buffer) were dispensed into each well. Samples were incubated for 2 hours at room temperature. Samples were washed 3 times with 100 μL/well of PBS using a Biotek EL406. Quantitative fluorescence imaging of ESR1 was carried out using a Cellomics Arrayscan V® (Thermo). Fluorescence images of the samples (Channel 1: XF53 Hoechst (DNA stain); Channel 2: XF53 FITC (ESR1 stain)) were acquired using a Cellomics VTI Arrayscan using the Bioapplication “Compartmental Analysis” using the auto-exposure (based on DMSO control wells) setting “peak target percentile” set to 25% target saturation for both channels. Channel 1 (DNA stain) was used to define the nuclear region (Circ). Measurements of “Mean_CircAvgIntCh2”, which is the Alexafluor 488 fluorescence intensity (ESR1) within the nuclear region, was measured on a per cell basis and averaged over all the measured cells. Data analysis was carried out using Genedata Screener Software, with DMSO and 5 nM Fulvestrant treated samples being used to define the 0% and 100% changes in ESR1. The “Robust Fit” method was used to define the inflexion point of curve (EC50) and the plateau of the maximal effect (Sinf).

Row | Structure (SMILES) | EC50 | ERalpha (WT) MCF7 HCS (S inf)
1 | Oc1ccc2c(c1)CCN(CC(F)(F)F)[C@@H]2c1c(F)cc(OCCN2CC(CF)C2)cc1F [Example 134, (1S)-1-[2,6-difluoro-4-[2-[3-(fluoromethyl)azetidin-1-yl]ethoxy]phenyl]-2-(2,2,2-trifluoroethyl)-3,4-dihydro-1H-isoquinolin-6-ol] | 0.013 nM | −98%
2 | C[C@@H](CN1CCc2cc(O)ccc2[C@@]1(C)c1ccc(OCCN2CC(CF)C2)cc1)C(=O)O [Example 136, (S)-3-((R)-1-(4-(2-(3-(fluoromethyl)azetidin-1-yl)ethoxy)phenyl)-6-hydroxy-1-methyl-3,4-dihydroisoquinolin-2(1H)-yl)-2-methylpropanoic acid] | ≥ 100 nM | –
3 | C[C@H](CN1CCc2cc(O)ccc2[C@@]1(C)c1ccc(OCCN2CC(CF)C2)cc1)C(=O)O [Example 137, (R)-3-((R)-1-(4-(2-(3-(fluoromethyl)azetidin-1-yl)ethoxy)phenyl)-6-hydroxy-1-methyl-3,4-dihydroisoquinolin-2(1H)-yl)-2-methylpropanoic acid] | 40 nM | −45%
4 | FCC1CN(CCOc2ccc([C@H]3c4ccc(-c5cn[nH]c5)cc4CCN3CC(F)(F)F)cc2)C1 [Example 145, (1S)-1-[4-[2-[3-(fluoromethyl)azetidin-1-yl]ethoxy]phenyl]-6-(1H-pyrazol-4-yl)-2-(2,2,2-trifluoroethyl)-3,4-dihydro-1H-isoquinoline] | ≥ 100 nM | −100%
5 | FCC1CN(CCOc2ccc([C@@H]3c4ccc(-c5cn[nH]c5)cc4CCN3CC(F)(F)F)cc2)C1 [Example 146, (1R)-1-[4-[2-[3-(fluoromethyl)azetidin-1-yl]ethoxy]phenyl]-6-(1H-pyrazol-4-yl)-2-(2,2,2-trifluoroethyl)-3,4-dihydro-1H-isoquinoline] | 0.56 nM | −95%
6 | FCC1CN(CCOc2ccc([C@H]3c4ccc(N5CCOCC5)cc4CCN3CC(F)(F)F)cc2)C1 [Example 147, 4-[(1S)-1-[4-[2-[3-(fluoromethyl)azetidin-1-yl]ethoxy]phenyl]-2-(2,2,2-trifluoroethyl)-3,4-dihydro-1H-isoquinolin-6-yl]morpholine] | ≥ 100 nM | –
7 | FCC1CN(CCOc2ccc([C@@H]3c4ccc(N5CCOCC5)cc4CCN3CC(F)(F)F)cc2)C1 [Example 148, 4-[(1R)-1-[4-[2-[3-(fluoromethyl)azetidin-1-yl]ethoxy]phenyl]-2-(2,2,2-trifluoroethyl)-3,4-dihydro-1H-isoquinolin-6-yl]morpholine] | 12 nM | −89%
8 | OCc1ccc2c(c1)CCN(CC(F)(F)F)[C@@H]2c1ccc(OCCN2CC(CF)C2)cc1 [Example 150, [(1R)-1-[4-[2-[3-(fluoromethyl)azetidin-1-yl]ethoxy]phenyl]-2-(2,2,2-trifluoroethyl)-3,4-dihydro-1H-isoquinolin-6-yl]methanol] | 1.7 nM | −100%
9 | FCC1CN(CCOc2ccc([C@@H]3c4ccc(-c5cc[nH]n5)cc4CCN3CC(F)(F)F)cc2)C1 [Example 152, (1R)-1-[4-[2-[3-(fluoromethyl)azetidin-1-yl]ethoxy]phenyl]-6-(1H-pyrazol-3-yl)-2-(2,2,2-trifluoroethyl)-3,4-dihydro-1H-isoquinoline] | 17 nM | −91%
10 | C[C@H]1Cc2cc(C(C)(C)O)ccc2[C@H](c2ccc(OCCN3CC(CF)C3)cc2)N1CC(F)(F)F [Example 162, 2-((1S,3S)-1-(4-(2-(3-(Fluoromethyl)azetidin-1-yl)ethoxy)phenyl)-3-methyl-2-(2,2,2-trifluoroethyl)-1,2,3,4-tetrahydroisoquinolin-6-yl)propan-2-ol] | 280 nM | –

Now from value to molecule:

Row | EC50 | ERalpha (WT) MCF7 HCS (S inf) | Structure (SMILES)
11 | 0.042 nM | −101% | C[C@@]1(c2ccc(OCCN3CC(CF)C3)cc2)c2ccc(O)cc2CCN1CC(F)(F)CO [Example 130, (R)-2-(2,2-difluoro-3-hydroxypropyl)-1-(4-(2-(3-(fluoromethyl)azetidin-1-yl)ethoxy)phenyl)-1-methyl-1,2,3,4-tetrahydroisoquinolin-6-ol]
12 | 17 nM | −90% | Oc1ccc2c(c1)CCN(CC(F)(F)F)[C@H]2c1c(F)cc(OCCN2CC(CF)C2)cc1F [Example 133, (1R)-1-[2,6-difluoro-4-[2-[3-(fluoromethyl)azetidin-1-yl]ethoxy]phenyl]-2-(2,2,2-trifluoroethyl)-3,4-dihydro-1H-isoquinolin-6-ol]
13 | ≥ 100 nM | – | C[C@@H](CN1CCc2cc(O)ccc2[C@]1(C)c1ccc(OCCN2CC(CF)C2)cc1)C(=O)O [Example 135, (S)-3-((S)-1-(4-(2-(3-(fluoromethyl)azetidin-1-yl)ethoxy)phenyl)-6-hydroxy-1-methyl-3,4-dihydroisoquinolin-2(1H)-yl)-2-methylpropanoic acid]
14 | ≥ 100 nM | – | C[C@H](CN1CCc2cc(O)ccc2[C@]1(C)c1ccc(OCCN2CC(CF)C2)cc1)C(=O)O [Example 138, (R)-3-((S)-1-(4-(2-(3-(fluoromethyl)azetidin-1-yl)ethoxy)phenyl)-6-hydroxy-1-methyl-3,4-dihydroisoquinolin-2(1H)-yl)-2-methylpropanoic acid]
15 | ≥ 100 nM | – | NC(=O)c1ccc2c(c1)CCN(CC(F)(F)F)[C@H]2c1ccc(OCCN2CC(CF)C2)cc1 [Example 141, (1S)-1-[4-[2-[3-(fluoromethyl)azetidin-1-yl]ethoxy]phenyl]-2-(2,2,2-trifluoroethyl)-3,4-dihydro-1H-isoquinoline-6-carboxamide]
16 | 29 nM | −79% | NC(=O)c1ccc2c(c1)CCN(CC(F)(F)F)[C@@H]2c1ccc(OCCN2CC(CF)C2)cc1 [Example 142, (1R)-1-[4-[2-[3-(fluoromethyl)azetidin-1-yl]ethoxy]phenyl]-2-(2,2,2-trifluoroethyl)-3,4-dihydro-1H-isoquinoline-6-carboxamide]
17 | ≥ 100 nM | – | FCC1CN(CCOc2ccc([C@H]3c4ccc(-c5cc[nH]n5)cc4CCN3CC(F)(F)F)cc2)C1 [Example 151, (1S)-1-[4-[2-[3-(fluoromethyl)azetidin-1-yl]ethoxy]phenyl]-6-(1H-pyrazol-3-yl)-2-(2,2,2-trifluoroethyl)-3,4-dihydro-1H-isoquinoline]
18 | 0.48 nM | −98% | CC1(C)Cc2cc(O)ccc2[C@H](c2ccc(OCCN3CC(CF)C3)cc2)N1CC(F)(F)F [Example 157, (S)-1-(4-(2-(3-(Fluoromethyl)azetidin-1-yl)ethoxy)phenyl)-3,3-dimethyl-2-(2,2,2-trifluoroethyl)-1,2,3,4-tetrahydroisoquinolin-6-ol]
19 | 11 nM | −82% | C[C@@H]1Cc2cc(C(C)(C)O)ccc2[C@@H](c2ccc(OCCN3CC(CF)C3)cc2)N1CC(F)(F)F [Example 161, 2-((1R,3R)-1-(4-(2-(3-(Fluoromethyl)azetidin-1-yl)ethoxy)phenyl)-3-methyl-2-(2,2,2-trifluoroethyl)-1,2,3,4-tetrahydroisoquinolin-6-yl)propan-2-ol]
